{
  "source": "patent US20260000695A1",
  "about": "“SOLID AND ORAL ETOPOSIDE TONIRIBATE COMPOSITIONS” (CELLACT PHARMA GMBH, priority 2022, published 2026)",
  "key": {"[1]": {"assay": "Table 9A: HPLC peaks over storage time, sample and storage not described", "type": "physicochemical"}, "[2]": {"details": "API; cited from earlier work"}, "[3]": {"assay": "Solubility and pH stability of the API", "type": "physicochemical"}},
  "data": [
    {"smiles": "COc1cc([C@@H]2c3cc4c(cc3[C@@H](O[C@@H]3O[C@@H]5CO[C@@H](C)O[C@H]5[C@@H](O)[C@H]3O)[C@H]3COC(=O)[C@H]23)OCO4)cc(OC)c1OC(=O)OCC1COC(C)(C)O1", "note": "(stereo partly shown) [CAP 7.1, Etoposide toniribate]", "values": [
      {"measurement": "Peak %, CAP 7.1 RT: 20.25", "setting": "[1]; 5 days", "value": 98.83, "unit": "%"},
      {"measurement": "Peak %, RRT:0.51 RT:10.43", "setting": "[1]; 5 days", "value": 0.09, "unit": "%"},
      {"measurement": "Peak %, RRT: 0.54 RT: 10.89 (Etoposide)", "setting": "[1]; 5 days", "value": 0.17, "unit": "%"},
      {"measurement": "Peak %, RRT: 0.95 RT: 19.13", "setting": "[1]; 5 days", "value": 0.09, "unit": "%"},
      {"measurement": "Peak %, RRT: 0.97 RT: 19.67", "setting": "[1]; 5 days", "value": 0.67, "unit": "%"},
      {"measurement": "Peak %, RRT: 1.10 RT: 22.32", "setting": "[1]; 5 days", "value": 0.04, "unit": "%"},
      {"measurement": "Peak %, RRT: 1.15 RT: 23.46", "setting": "[1]; 5 days", "value": 0.07, "unit": "%"},
      {"measurement": "Peak %, RRT: 1.19 RT: 24.11", "setting": "[1]; 5 days", "value": 0.04, "unit": "%"},
      {"measurement": "Peak %, CAP 7.1 RT: 20.25", "setting": "[1]; 12 days", "value": 98.58, "unit": "%"},
      {"measurement": "Peak %, RRT:0.51 RT:10.43", "setting": "[1]; 12 days", "value": 0.09, "unit": "%"},
      {"measurement": "Peak %, RRT: 0.54 RT: 10.89 (Etoposide)", "setting": "[1]; 12 days", "value": 0.22, "unit": "%"},
      {"measurement": "Peak %, RRT: 0.95 RT: 19.13", "setting": "[1]; 12 days", "value": 0.09, "unit": "%"},
      {"measurement": "Peak %, RRT: 0.97 RT: 19.67", "setting": "[1]; 12 days", "value": 0.87, "unit": "%"},
      {"measurement": "Peak %, RRT: 1.10 RT: 22.32", "setting": "[1]; 12 days", "value": 0.03, "unit": "%"},
      {"measurement": "Peak %, RRT: 1.15 RT: 23.46", "setting": "[1]; 12 days", "value": 0.07, "unit": "%"},
      {"measurement": "Peak %, RRT: 1.19 RT: 24.11", "setting": "[1]; 12 days", "value": 0.04, "unit": "%"},
      {"measurement": "Peak %, CAP 7.1 RT: 20.25", "setting": "[1]; 17 days", "value": 98.18, "unit": "%"},
      {"measurement": "Peak %, RRT:0.51 RT:10.43", "setting": "[1]; 17 days", "value": 0.17, "unit": "%"},
      {"measurement": "Peak %, RRT: 0.54 RT: 10.89 (Etoposide)", "setting": "[1]; 17 days", "value": 0.33, "unit": "%"},
      {"measurement": "Peak %, RRT: 0.95 RT: 19.13", "setting": "[1]; 17 days", "value": 0.10, "unit": "%"},
      {"measurement": "Peak %, RRT: 0.97 RT: 19.67", "setting": "[1]; 17 days", "value": 1.10, "unit": "%"},
      {"measurement": "Peak %, RRT: 1.10 RT: 22.32", "setting": "[1]; 17 days", "value": 0.04, "unit": "%"},
      {"measurement": "Peak %, RRT: 1.15 RT: 23.46", "setting": "[1]; 17 days", "value": 0.04, "unit": "%"},
      {"measurement": "Peak %, RRT: 1.19 RT: 24.11", "setting": "[1]; 17 days", "value": 0.04, "unit": "%"},
      {"measurement": "Peak %, CAP 7.1 RT: 20.25", "setting": "[1]; initial", "value": 99.21, "unit": "%"},
      {"measurement": "Peak %, RRT: 0.54 RT: 10.89 (Etoposide)", "setting": "[1]; initial", "value": 0.10, "unit": "%"},
      {"measurement": "Peak %, RRT: 0.95 RT: 19.13", "setting": "[1]; initial", "value": 0.10, "unit": "%"},
      {"measurement": "Peak %, RRT: 0.97 RT: 19.67", "setting": "[1]; initial", "value": 0.48, "unit": "%"},
      {"measurement": "Peak %, RRT: 1.10 RT: 22.32", "setting": "[1]; initial", "value": 0.05, "unit": "%"},
      {"measurement": "Peak %, RRT: 1.15 RT: 23.46", "setting": "[1]; initial", "value": 0.04, "unit": "%"},
      {"measurement": "Peak %, RRT: 1.19 RT: 24.11", "setting": "[1]; initial", "value": 0.03, "unit": "%"},
      {"measurement": "solubility in water", "setting": "[2]", "value": "poorly soluble"},
      {"measurement": "stability at acidic and basic pH", "setting": "[2]", "value": "unstable"},
      {"measurement": "solubility in water or aqueous buffer systems", "setting": "[3]", "value": "practically insoluble"}
    ]}
  ]
}
